Paper PMC6325219, “Preclinical Characterization of NVR 3-778, a First-in-Class Capsid Assembly Modulator against Hepatitis B Virus” (Antimicrobial Agents and Chemotherapy, 2018)
“Also recorded” adds a separate entry of the source. Read-outs that look alike come from different tables or passages of the source.

How the values were obtained:
[1] = 28-day twice-daily oral gavage pharmacokinetics in CD1 mice; format: in vivo; conditions: for Cmax / half-life / AUC(0-t) / Tmax: CD1, mouse, plasma, po; for AUC(0-t): after second daily dose, read-out: AUC0–12; for Tmax: relative to second daily dose
Description: Fed male and female CD1 mice (36/sex/group) were dosed twice a day (BID) by oral gavage with 50, 150, and 500 mg/kg of body weight/dose of NVR 3-778 for 28 days. At different time points after dosing, plasma was analyzed for NVR 3-778 concentration by liquid chromatography-tandem mass spectrometry (LC-MS/MS).
In vivo pharmacokinetics studies were performed at Covance Laboratories (Madison, Wisconsin), accredited by the Association for Assessment and Accreditation of Laboratory Animal Care (AAALAC). All procedures in the protocols were in compliance with applicable animal welfare acts and were approved by the local Institutional Animal Care and Use Committee (IACUC). For the 28-day study in mice, male and female mice were 6 to 7 weeks old at the initiation of dosing. Environmental conditions, diet, and water were typical for pharmacokinetic and tolerability studies. NVR 3-778 was dosed in a vehicle of 0.5% (wt/vol) hydroxypropyl methylcellulose (Methocel E50 premium)--1% (wt/vol) polysorbate 80 (Tween 80) in reverse osmosis water. Blood samples were collected at 0.25, 0.5, 1, 3, 6, and 12 h after dosing on day 1 and on day 28 of the study into potassium (K2) EDTA. Plasma was harvested and stored at −80°C.

HBV GT D = assay: Transient-transfection antiviral study in HepG2 cells, GT D; format: cell-based; conditions: Hepatitis B virus, HepG2, 72 h, read-out: EC50 (mean), HBV GT D
Description: (§1) Cells were cotransfected with the HBV plasmids (100 ng/well) and a Gaussia expression plasmid (10 ng/well) (Thermo Scientific) using the Lipofectamine LTX Plus transfection reagent (Life Technologies). Transfection mixtures were removed after overnight incubation, and cells were treated with serially diluted NVR 3-778 at a final dimethyl sulfoxide (DMSO) concentration of 0.5%. After 3 days of incubation with the compound, the supernatants were collected and secreted Gaussia luciferase was measured using a Gaussia Flash luciferase assay kit (Thermo Scientific). […] Samples were diluted into lysis buffer (Affymetrix) containing 2.5 µg proteinase K (Affymetrix) at 50°C for 40 min. Intracellular encapsidated HBV DNA was denatured for 30 min at 25°C in 0.2 M NaOH (Sigma) and incubated with HBV DNA probes designed to hybridize to the minus-strand HBV DNA (Affymetrix). The denatured DNA was subsequently detected using a QuantiGene assay kit, according to the branched DNA (bDNA) assay recommended by the manufacturer (Affymetrix).

[2] = Cell viability of HepG2.2.15 cells (ATP levels, CellTiter-Glo); format: cell-based; conditions: human, HepG2.2.15 cells, ATP levels, CellTiter-Glo
Description: In combination studies, cells were treated with compounds either alone or in combination after combining the compounds in a checkerboard format. In studies examining the effect of human serum, serially diluted NVR 3-778 was added into cell culture medium containing 0% to 40% human serum (BioreclamationIVT). Cells were incubated with the compounds for 3 days, after which the medium was removed, fresh medium containing the compounds was added to the cells, and the cells were incubated for another 3 days prior to harvesting of the supernatants or cells for antiviral assays. To quantify intracellular encapsidated rcDNA or encapsidated pgRNA, cells were first solubilized using lysis buffer containing 1% NP-40 and 10 mM CaCl2. The cytoplasmic fraction was then treated with S7 nuclease (6 units) to remove nonencapsidated nucleic acids, after which the S7 nuclease was inactivated by the addition of EDTA (0.5 M). […] The levels of HBV DNA were determined by a bDNA assay as described above (Affymetrix). Supernatants or cell lysates containing HBV RNA were treated with proteinase K (2.5 µg) at 50°C for 40 min, transferred to a capture plate containing HBV RNA probe sets, and hybridized overnight at 55°C. Captured HBV RNA was measured by the addition of a chemiluminescent substrate using a QuantiGene assay (Affymetrix). […] At day 6, the CellTiter-Glo reagent was added to the cells and viability was determined according to the manufacturer’s protocol (Promega). Luminescence signals were measured at 0.2 s using a Victor X4 multimode plate reader (PerkinElmer).

HBV GT G = assay: Transient-transfection antiviral study in HepG2 cells, GT G; format: cell-based; conditions: Hepatitis B virus, HepG2, 72 h, read-out: EC50 (mean), HBV GT G
Description: as §1

HBV GT F = assay: Transient-transfection antiviral study in HepG2 cells, GT F; format: cell-based; conditions: Hepatitis B virus, HepG2, 72 h, read-out: EC50 (mean), HBV GT F
Description: as §1

HBV GT C = assay: Transient-transfection antiviral study in HepG2 cells, GT C; format: cell-based; conditions: Hepatitis B virus, HepG2, 72 h, read-out: EC50 (mean), HBV GT C
Description: as §1

HBV GT A = assay: Transient-transfection antiviral study in HepG2 cells, GT A; format: cell-based; conditions: Hepatitis B virus, 72 h, 3 days, intracellular encapsidated rcDNA
Description: as §1

HBV GT E = assay: Transient-transfection antiviral study in HepG2 cells, GT E; format: cell-based; conditions: Hepatitis B virus, HepG2, 72 h, read-out: EC50 (mean), HBV GT E
Description: as §1

HBV (GT C) = test system: HBV (GT C); set-up: method as in PMID 29079518; conditions: cited from earlier work
[3] = test system: HBV core protein variant T109S; assay: Transient-transfection antiviral study in HepG2 cells, core variant T109S; format: cell-based, hepatitis B virus
Description: as §1

[4] = set-up: method as in PMID 29079518; conditions: humanized mice; cited from earlier work
HBV [5] = test system: HBV; set-up: method as in PMID 30181376; conditions: metabolically active primary human hepatocytes; cited from earlier work
HBV [6] = test system: HBV; set-up: method as in doi:10.1016/S0168-8278(16)00175-6; conditions: HBV-infected patients; cited from earlier work
[7] = female, 50 mg/kg, day 1, 50 mg/kg/dose BID oral gavage, F
[8] = female, 50 mg/kg, day 28, 50 mg/kg/dose BID oral gavage, F
[9] = female, 150 mg/kg, day 1, 150 mg/kg/dose BID oral gavage, F
[10] = female, 150 mg/kg, day 28, 150 mg/kg/dose BID oral gavage, F
[11] = female, 500 mg/kg, day 1, 500 mg/kg/dose BID oral gavage, F
[12] = female, 500 mg/kg, day 28, 500 mg/kg/dose BID oral gavage, F
[13] = male, 50 mg/kg, day 1, 50 mg/kg/dose BID oral gavage, M
[14] = male, 50 mg/kg, day 28, 50 mg/kg/dose BID oral gavage, M
[15] = male, 150 mg/kg, day 1, 150 mg/kg/dose BID oral gavage, M
[16] = male, 150 mg/kg, day 28, 150 mg/kg/dose BID oral gavage, M
[17] = male, 500 mg/kg, day 1, 500 mg/kg/dose BID oral gavage, M
[18] = male, 500 mg/kg, day 28, 500 mg/kg/dose BID oral gavage, M

In the case of `O=C(Nc1cc(F)c(F)c(F)c1)c1ccc(F)c(S(=O)(=O)N2CCC(O)CC2)c1` [NVR 3-778], the “Gender differences in NVR 3-778 exposure” value ([1]; CD1 mice, Cmax and AUC) is reported as “less than 2 fold”, the Cmax ([1]; both sexes, 500 mg/kg, 28-day study, dosed orally at 500 mg/kg BID, 100 µM = 43.2 µg/ml, read-out: Mean Cmax (serum/plasma level reached in mice)) is reported as over 100 µM and the half-life [1, 7] is reported as 2.2 h. It also gave an AUC(0-t) [1, 7] of 60.1 µg·h/mL, a Cmax ([1]; female, 50 mg/kg, day 1, 50 mg/kg/dose BID oral gavage, F, read-out: Cmax) of 11700 ng/mL and a Tmax [1, 7] of 0.5 h. The AUC(0-t) [1, 8] was 78.8 µg·h/mL, the Cmax ([1]; female, 50 mg/kg, day 28, 50 mg/kg/dose BID oral gavage, F, read-out: Cmax) was 11500 ng/mL and the Tmax [1, 8] was 3 h. It also gave a half-life [1, 9] of 4.35 h, an AUC(0-t) [1, 9] of 131 µg·h/mL and a Cmax ([1]; female, 150 mg/kg, day 1, 150 mg/kg/dose BID oral gavage, F, read-out: Cmax) of 22000 ng/mL. The Tmax [1, 9] was 0.5 h, the half-life [1, 10] was 2.48 h and the AUC(0-t) [1, 10] was 171 µg·h/mL. It also gave a Cmax ([1]; female, 150 mg/kg, day 28, 150 mg/kg/dose BID oral gavage, F, read-out: Cmax) of 26600 ng/mL, a Tmax [1, 10] of 1 h and an AUC(0-t) [1, 11] of 315 µg·h/mL. For the same molecule, the Cmax ([1]; female, 500 mg/kg, day 1, 500 mg/kg/dose BID oral gavage, F, read-out: Cmax) was 41400 ng/mL, the Tmax [1, 11] was 0.5 h and the AUC(0-t) [1, 12] was 354 µg·h/mL. The Cmax ([1]; female, 500 mg/kg, day 28, 500 mg/kg/dose BID oral gavage, F, read-out: Cmax) was 40800 ng/mL, the Tmax [1, 12] was 3 h and the AUC(0-t) [1, 13] was 70.4 µg·h/mL. It also gave a Cmax ([1]; male, 50 mg/kg, day 1, 50 mg/kg/dose BID oral gavage, M, read-out: Cmax) of 12700 ng/mL, a Tmax [1, 13] of 1 h and an AUC(0-t) [1, 14] of 87.3 µg·h/mL. The Cmax ([1]; male, 50 mg/kg, day 28, 50 mg/kg/dose BID oral gavage, M, read-out: Cmax) was 11900 ng/mL, the Tmax [1, 14] was 3 h and the half-life [1, 15] was 5 h. For the same molecule, the AUC(0-t) [1, 15] was 166 µg·h/mL, the Cmax ([1]; male, 150 mg/kg, day 1, 150 mg/kg/dose BID oral gavage, M, read-out: Cmax) was 25300 ng/mL and the Tmax [1, 15] was 1 h. The AUC(0-t) [1, 16] was 157 µg·h/mL, the Cmax ([1]; male, 150 mg/kg, day 28, 150 mg/kg/dose BID oral gavage, M, read-out: Cmax) was 24200 ng/mL and the Tmax [1, 16] was 1 h. It also gave an AUC(0-t) [1, 17] of 406 µg·h/mL, a Cmax ([1]; male, 500 mg/kg, day 1, 500 mg/kg/dose BID oral gavage, M, read-out: Cmax) of 43000 ng/mL and a Tmax [1, 17] of 1 h. It also gave a half-life [1, 18] of 3.15 h, an AUC(0-t) [1, 18] of 375 µg·h/mL and a Cmax ([1]; male, 500 mg/kg, day 28, 500 mg/kg/dose BID oral gavage, M, read-out: Cmax) of 43800 ng/mL. The Tmax [1, 18] was 3 h, the “Circulating species in plasma” value ([1]; mice, oral gavage) was “predominant circulating molecule” and the EC50 (HBV GT D) was 430 nM. For the same molecule, the CC50 at 6 days [2] was 14500 nM, the EC50 (HBV GT G) was 250 nM and the EC50 (HBV GT F) was 560 nM. For the same molecule, the EC50 (HBV GT C) was 340 nM, the EC50 (HBV GT A) was 380 nM and the EC50 (HBV GT E) was 580 nM. The “Antiviral activity compared with ETV” value (HBV (GT C); HBV-infected humanized mice, 405 mg/kg BID) was “antiviral activity similar to that of the nucleoside analog ETV”, the “Reduction of serum HBV DNA and HBV RNA, combination with pegIFN versus NVR 3-778 alone, pegIFN alone or entecavir alone” value (HBV (GT C); HBV-infected humanized mice) was “greater reduction in both serum HBV DNA and HBV RNA levels” and the “Effect on serum HBV DNA and HBV RNA levels” value (HBV (GT C); humanized mice infected with GT C HBV) was “effective at reducing both serum HBV DNA and HBV RNA levels; also recorded: significant reductions in HBV DNA and secreted HBV RNA levels”. The EC50 ([3]; Hepatitis B virus, HepG2, read-out: EC50, core variant T109S) was 770 ± 270 nM, the “EC50 FC, T109S” value ([3]; ratio of mean EC50 for core variant over wild-type HBV) was 3.3 fold and the “Plasma trough concentrations, all mice” value [4] was “at least 3 µM”. The “Increase in EC50 against HBV DNA replication in the presence of serum proteins” value (HBV [5]) was “about 4 fold” and the “Antiviral effect, combination with pegIFN versus NVR 3-778 monotherapy” value (HBV [6]) was “greatest antiviral effect”.
